Experiments:
Format in all cases: biochemical
PI3K α = PI3K α (Homo sapiens (Human), UniProt P42336); assay: PI 3-Kinase (human) HTRF assay, p110α/p85α
PI3K β = PI3K β (Homo sapiens (Human), UniProt P42338); assay: PI 3-Kinase (human) HTRF assay, p110β/p85α
PI3K δ = PI3K δ (Homo sapiens (Human), UniProt O00329); assay: PI 3-Kinase (human) HTRF assay, p110δ/p85α
PI3K γ = PI3K γ (Homo sapiens (Human), UniProt P48736); assay: PI 3-Kinase (human) HTRF assay, p110γ; details: read-out: PI3K γ IC50
Method: An exemplary system is PI 3-Kinase (human) HTRF™ Assay from Upstate. […] Briefly, the assay is a time resolved FRET assay that indirectly measures PIP3 product formed by the activity of a PI3-K. The kinase reaction is performed in a microtitre plate (e.g., a 384 well microtitre plate). The total reaction volume is approximately 20 ul per well. In the first step, each well receives 2 ul of test compound in 20% dimethylsulphoxide resulting in a 2% DMSO final concentration. Next, approximately 14.5 ul of a kinase/PIP2 mixture (diluted in 1× reaction buffer) is added per well for a final concentration of 0.25-0.3 ug/ml kinase and 10 μM PIP2. The plate is sealed and incubated for 15 minutes at room temperature. To start the reaction, 3.5 ul of ATP (diluted in 1× reaction buffer) is added per well for a final concentration of 10 μM ATP. The plate is sealed and incubated for 1 hour at room temperature. The reaction is stopped by adding 5 ul of Stop Solution per well and then 5 ul of Detection Mix is added per well. The plate is sealed, incubated for 1 hour at room temperature, and then read on an appropriate plate reader. Data is analyzed and IC50s are generated using GraphPad Prism 5. For PI3K α, β, δ, and γ, the nM concentration of inhibitor to reach IC50 is provided.

mTORC = mTORC (Homo sapiens (Human), UniProt P42345); assay: mTOR inhibition assay (radiometric or LanthaScreen TR-FRET)
Sequence of mTORC (P42345 1360-2549): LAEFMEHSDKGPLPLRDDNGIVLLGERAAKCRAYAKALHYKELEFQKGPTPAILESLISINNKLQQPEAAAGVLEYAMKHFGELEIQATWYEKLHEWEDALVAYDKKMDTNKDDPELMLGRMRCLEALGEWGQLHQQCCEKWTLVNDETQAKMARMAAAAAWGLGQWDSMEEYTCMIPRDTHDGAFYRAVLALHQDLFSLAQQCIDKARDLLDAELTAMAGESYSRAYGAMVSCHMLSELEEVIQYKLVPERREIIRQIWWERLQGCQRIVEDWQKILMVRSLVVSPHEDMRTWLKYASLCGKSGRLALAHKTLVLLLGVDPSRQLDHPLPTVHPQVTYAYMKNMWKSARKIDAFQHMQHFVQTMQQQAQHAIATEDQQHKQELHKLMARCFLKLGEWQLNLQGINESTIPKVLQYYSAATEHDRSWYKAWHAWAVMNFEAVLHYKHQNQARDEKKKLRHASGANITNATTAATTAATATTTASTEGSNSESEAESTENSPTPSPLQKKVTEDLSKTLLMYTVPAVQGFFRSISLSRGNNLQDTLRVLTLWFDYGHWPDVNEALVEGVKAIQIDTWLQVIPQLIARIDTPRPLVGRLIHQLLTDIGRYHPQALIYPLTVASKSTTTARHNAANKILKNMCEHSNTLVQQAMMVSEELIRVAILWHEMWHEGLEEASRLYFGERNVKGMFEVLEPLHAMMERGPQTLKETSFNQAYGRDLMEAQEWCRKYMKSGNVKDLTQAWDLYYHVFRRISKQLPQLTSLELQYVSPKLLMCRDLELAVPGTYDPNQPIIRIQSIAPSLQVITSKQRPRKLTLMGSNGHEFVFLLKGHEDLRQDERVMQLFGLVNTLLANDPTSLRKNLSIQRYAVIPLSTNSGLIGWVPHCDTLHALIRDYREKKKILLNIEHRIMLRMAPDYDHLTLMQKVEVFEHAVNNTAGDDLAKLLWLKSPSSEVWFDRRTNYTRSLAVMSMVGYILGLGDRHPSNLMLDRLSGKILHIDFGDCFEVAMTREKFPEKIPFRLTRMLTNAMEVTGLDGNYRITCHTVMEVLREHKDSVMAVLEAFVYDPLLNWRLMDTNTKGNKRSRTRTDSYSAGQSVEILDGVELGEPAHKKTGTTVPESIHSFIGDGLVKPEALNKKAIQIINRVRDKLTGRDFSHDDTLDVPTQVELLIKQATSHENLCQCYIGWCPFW

Sequence of PI3K δ (O00329 whole entry): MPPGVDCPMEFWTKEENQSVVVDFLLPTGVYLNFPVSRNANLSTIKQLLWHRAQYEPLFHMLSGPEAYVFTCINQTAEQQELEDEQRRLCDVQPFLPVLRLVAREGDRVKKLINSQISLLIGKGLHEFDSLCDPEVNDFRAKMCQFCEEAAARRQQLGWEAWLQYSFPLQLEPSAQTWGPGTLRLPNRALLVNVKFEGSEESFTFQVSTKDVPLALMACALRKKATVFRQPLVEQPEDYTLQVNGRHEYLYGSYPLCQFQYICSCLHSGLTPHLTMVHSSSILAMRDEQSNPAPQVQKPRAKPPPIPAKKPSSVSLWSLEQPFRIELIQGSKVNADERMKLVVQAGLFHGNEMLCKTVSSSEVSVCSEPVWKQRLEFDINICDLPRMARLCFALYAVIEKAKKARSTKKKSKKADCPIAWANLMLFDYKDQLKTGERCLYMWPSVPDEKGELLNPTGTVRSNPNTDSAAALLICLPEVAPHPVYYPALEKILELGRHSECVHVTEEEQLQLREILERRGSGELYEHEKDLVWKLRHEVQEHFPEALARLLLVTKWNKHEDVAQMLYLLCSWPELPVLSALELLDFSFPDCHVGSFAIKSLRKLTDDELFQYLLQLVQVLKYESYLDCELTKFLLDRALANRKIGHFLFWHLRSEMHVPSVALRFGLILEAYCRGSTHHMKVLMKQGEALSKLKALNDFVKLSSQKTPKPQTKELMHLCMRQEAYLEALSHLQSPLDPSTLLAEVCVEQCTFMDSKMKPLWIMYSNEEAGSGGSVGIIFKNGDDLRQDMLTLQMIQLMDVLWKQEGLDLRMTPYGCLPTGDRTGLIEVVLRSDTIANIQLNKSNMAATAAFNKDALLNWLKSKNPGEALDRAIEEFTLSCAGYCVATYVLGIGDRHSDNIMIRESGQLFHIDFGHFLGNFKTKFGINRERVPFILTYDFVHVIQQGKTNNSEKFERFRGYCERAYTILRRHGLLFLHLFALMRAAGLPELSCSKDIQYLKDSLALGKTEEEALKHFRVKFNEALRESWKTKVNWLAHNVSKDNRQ
Sequence of PI3K δ (P27986 whole entry partner): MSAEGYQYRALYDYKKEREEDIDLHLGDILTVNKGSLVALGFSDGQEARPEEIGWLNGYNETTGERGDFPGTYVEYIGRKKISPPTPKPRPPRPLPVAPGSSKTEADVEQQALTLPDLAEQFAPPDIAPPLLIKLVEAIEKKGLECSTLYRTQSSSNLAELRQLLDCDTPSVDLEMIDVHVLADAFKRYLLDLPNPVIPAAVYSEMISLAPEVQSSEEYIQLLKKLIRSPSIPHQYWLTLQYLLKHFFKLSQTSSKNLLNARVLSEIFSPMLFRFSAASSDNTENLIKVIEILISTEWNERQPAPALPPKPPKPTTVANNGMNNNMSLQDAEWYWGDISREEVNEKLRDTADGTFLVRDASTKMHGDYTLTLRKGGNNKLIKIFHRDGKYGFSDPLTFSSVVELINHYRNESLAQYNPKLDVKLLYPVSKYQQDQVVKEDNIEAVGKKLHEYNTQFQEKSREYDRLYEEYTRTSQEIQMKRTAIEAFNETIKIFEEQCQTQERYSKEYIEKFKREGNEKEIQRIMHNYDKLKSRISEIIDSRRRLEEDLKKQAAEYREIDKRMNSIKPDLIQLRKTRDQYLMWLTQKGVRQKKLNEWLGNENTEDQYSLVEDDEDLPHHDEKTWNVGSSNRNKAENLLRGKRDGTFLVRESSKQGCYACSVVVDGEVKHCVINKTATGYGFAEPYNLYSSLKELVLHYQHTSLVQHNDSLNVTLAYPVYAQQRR
Sequence of PI3K γ (P48736 whole entry): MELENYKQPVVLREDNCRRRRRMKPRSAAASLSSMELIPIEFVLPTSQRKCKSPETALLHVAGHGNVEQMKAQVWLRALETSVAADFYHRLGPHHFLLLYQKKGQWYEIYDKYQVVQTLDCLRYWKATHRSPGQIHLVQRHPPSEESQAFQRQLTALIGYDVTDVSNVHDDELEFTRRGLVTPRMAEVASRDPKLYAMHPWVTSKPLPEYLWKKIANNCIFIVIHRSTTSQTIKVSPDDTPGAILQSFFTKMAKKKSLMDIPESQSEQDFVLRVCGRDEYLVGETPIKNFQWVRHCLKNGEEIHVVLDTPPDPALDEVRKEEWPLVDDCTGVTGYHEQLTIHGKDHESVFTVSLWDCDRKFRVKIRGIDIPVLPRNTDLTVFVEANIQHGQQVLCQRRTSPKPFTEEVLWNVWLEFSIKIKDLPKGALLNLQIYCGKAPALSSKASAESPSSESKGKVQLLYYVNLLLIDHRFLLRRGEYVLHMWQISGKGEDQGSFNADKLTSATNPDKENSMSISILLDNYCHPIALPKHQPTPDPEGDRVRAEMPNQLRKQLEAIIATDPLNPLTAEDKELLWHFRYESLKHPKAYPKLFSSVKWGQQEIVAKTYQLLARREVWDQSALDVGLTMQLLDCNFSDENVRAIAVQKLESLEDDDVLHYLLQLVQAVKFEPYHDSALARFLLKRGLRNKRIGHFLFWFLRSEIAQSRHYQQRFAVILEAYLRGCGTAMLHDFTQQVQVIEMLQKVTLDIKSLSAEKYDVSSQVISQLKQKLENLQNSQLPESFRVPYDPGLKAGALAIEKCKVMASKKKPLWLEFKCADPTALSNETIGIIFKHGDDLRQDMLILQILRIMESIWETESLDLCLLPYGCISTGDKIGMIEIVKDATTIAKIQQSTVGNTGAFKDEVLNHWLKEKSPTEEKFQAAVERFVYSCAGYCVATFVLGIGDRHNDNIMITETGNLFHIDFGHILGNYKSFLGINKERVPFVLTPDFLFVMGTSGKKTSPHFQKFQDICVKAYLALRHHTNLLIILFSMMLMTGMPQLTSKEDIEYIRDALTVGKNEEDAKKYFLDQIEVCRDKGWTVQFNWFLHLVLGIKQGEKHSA

Row | SMILES | IC50 (PI3K α) [nM] | IC50 (PI3K β) [nM] | IC50 (PI3K δ) [nM] | IC50 (PI3K γ) [nM] | IC50 (mTORC) [nM]
1 | Nc1ccc2cc(-c3ccc4nccc(-c5ccncc5)c4c3)ccc2n1 [Compound 5] | < 1000 | > 10000 | < 10000 | < 1000 | < 1000
2 | C[C@H]1CN(C2CN(c3cnc4ccc(-c5ccc6oc(N)nc6c5)nc4c3)C2)CCN1C | < 100 | < 10000 | < 1000 | < 10000 | > 10000
3 | Nc1nc2cc(-c3ccc4ncc(=O)[nH]c4c3)ccc2o1 | < 100 | < 1000 | > 10000 | < 100 | < 1000
4 | Nc1nc2cc(-c3ccc4ncc(N5CCN(C(=O)C6(N)CC6)CC5)nc4n3)ccc2o1 | < 100 | < 10000 | < 10000 | < 100 | < 10000
5 | Nc1nc2cc(-c3ccc4ncc(N5CC(N6CCOCC6)C5)nc4n3)ccc2o1 | < 100 | > 10000 | < 10000 | < 10000 | < 10000
6 | Nc1nc2cc(-c3ccc4ncc(N5CC(C(=O)N6CCOCC6)C5)nc4c3)ccc2o1 [drawing 359] | < 100 | < 1000 | < 1000 | < 1000 | < 10000
7 | CC(C)(N)C(=O)N1CCN(c2cnc3ccc(-c4ccc5oc(N)nc5c4)nc3n2)CC1 | < 100 | < 10000 | < 10000 | < 10000 | > 10000
8 | Nc1nc2cc(-c3ccc4ncc(N5C6CCC5COC6)nc4n3)ccc2o1 | < 100 | > 10000 | > 10000 | < 100 | > 10000
9 | CN1CC2CN(c3cnc4ccc(-c5ccc6oc(N)nc6c5)nc4n3)CC2C1 (stereo not shown) | < 100 | < 1000 | < 1000 | < 10000 | > 10000
10 | CCOC(=O)N1CCN(c2cnc3ccc(-c4ccc5oc(N)nc5c4)cc3n2)CC1 | < 100 | < 10000 | < 10000 | < 10000 | < 10000
11 | CC(=O)Nc1nc2ccc(-c3ccc4nccc(-c5ccncc5)c4c3)cc2s1 [Compound 2] | < 1000 | > 10000 | > 10000 | < 1000 | > 10000
12 | CC(C)N1CCN(c2cnc3ccc(-c4ccc5oc(N)nc5c4)nc3c2)CC1 | < 100 | < 1000 | < 1000 | < 1000 | > 10000
13 | Nc1nc2cc(-c3ccc4ncc(N5CCC(N6CCOCC6)CC5)nc4c3)ccc2o1 | < 100 | < 1000 | < 1000 | < 1000 | > 10000
14 | CN1CC(C(=O)N2CCN(c3cnc4ccc(-c5ccc6oc(N)nc6c5)cc4n3)CC2)C1 | < 100 | < 1000 | < 1000 | < 1000 | > 10000
15 | Cn1c(=O)n(-c2ccc(C(C)(C)C#N)cc2)c2c3cc(-c4ccc5oc(N)nc5c4)ccc3ncc21 [Compound 7] | < 100 | < 100 | < 100 | < 100 | < 100
16 | Cc1nccn1C1CN(c2cnc3ccc(-c4ccc5oc(N)nc5c4)nc3n2)C1 | < 100 | < 10000 | < 10000 | < 10000 | > 10000
17 | CC1(C)CN(C2CN(c3cnc4ccc(-c5ccc6oc(N)nc6c5)nc4c3)C2)CCN1 | < 100 | < 10000 | < 1000 | < 1000 | > 10000
18 | CS(=O)(=O)N1CCN(Cc2cc3nc(-c4ccc5oc(N)nc5c4)nc(N4CCOCC4)c3s2)CC1 | < 100 | < 1000 | < 1000 | < 100 | < 1000
19 | Nc1nc2cc(-c3ccc4ncc(N5CC(N6CCN(CC7CC7)CC6)C5)nc4n3)ccc2o1 | < 100 | < 10000 | < 10000 | < 10000 | > 10000
20 | CC(=O)N1CCC(Nc2ncnc3ccc(-c4ccc5oc(N)nc5c4)cc23)CC1 | < 100 | < 10000 | < 1000 | < 100 | < 1000

Reference: patent publication US9682141B2, “Combination of kinase inhibitors and uses thereof” (INTELLIKINE LLC, priority 2011, dated 2017)
